In US20230146795A1, “ENHANCEMENT OF ANTI-TUMOR ACTIVITY OF SHP2 INHIBITOR PYRIMIDINONE IN COMBINATION WITH NOVEL CANCER MEDICINES IN CANCERS” (TAIHO PHARMACEUTICAL CO., LTD., priority 2020, published 2023):

How the values were obtained:
[1] = system: pERK levels in HCC827 cells; assay: Cellular pERK inhibition assay (In-Cell Western); format: cell-based; settings: Homo sapiens, relative IC50
Description: pERK levels were determined using the In-Cell Western assay. HCC827 cells (ATCC, Manassas, USA) were seeded into 384-well plates at a density of 1×10^4 cells/well in RPMI1640 medium supplemented with 10% FBS and incubated 24 h. Compounds were diluted first in DMSO and then into serum-free medium, before being added to cells in quadruplicate to give a final concentration of 0.2% DMSO. Plates were incubated at 37° C. for the indicated time in a humidified atmosphere of 5% CO2 in air.
Following compound treatment, cells were fixed with formalin neutral buffer solution for 20 minutes at room temperature. Plates were washed three times with 0.1% Triton-X in PBS and cells were blocked for 1 hour with Odyssey blocking buffer (LI-COR, #927-40000). […] Levels of pERK were then expressed as percent of control, using DMSO treated samples as control. The relative IC50 values were calculated in quadruplicate from the normalized dose-response plots using four parameter logistic curve fit. The Experiment for each compound was carried out in one time or multiple times, and the IC50 values were shown as a single value (for a compound measured in a single experiment) or an average value (for a compound measured in multiple experiments).

SHP2 = molecular target: T1, SHP2 (Homo sapiens, UniProt Q06124); assay: SHP2 biochemical assay (DiFMUP conversion); settings: 10 pM SHP2, 0.25 μM pIRS1 peptide, 50 μM DiFMUP
T1 sequence (Q06124 1-593): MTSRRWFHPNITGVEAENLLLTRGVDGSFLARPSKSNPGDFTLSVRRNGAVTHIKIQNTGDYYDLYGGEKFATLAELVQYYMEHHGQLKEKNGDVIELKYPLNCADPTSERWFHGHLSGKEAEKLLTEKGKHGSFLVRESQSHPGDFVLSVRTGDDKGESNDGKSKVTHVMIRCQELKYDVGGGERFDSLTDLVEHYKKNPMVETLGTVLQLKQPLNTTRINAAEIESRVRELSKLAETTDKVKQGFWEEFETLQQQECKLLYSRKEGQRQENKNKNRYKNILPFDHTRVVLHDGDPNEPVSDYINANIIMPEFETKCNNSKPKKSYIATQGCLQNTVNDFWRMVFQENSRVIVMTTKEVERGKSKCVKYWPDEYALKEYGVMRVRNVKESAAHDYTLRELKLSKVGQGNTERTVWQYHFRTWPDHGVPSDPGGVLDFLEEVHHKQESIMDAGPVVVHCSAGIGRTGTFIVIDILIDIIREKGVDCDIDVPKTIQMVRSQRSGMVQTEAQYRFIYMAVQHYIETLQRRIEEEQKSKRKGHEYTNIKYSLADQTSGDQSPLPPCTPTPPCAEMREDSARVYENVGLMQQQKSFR
Description: (1) SHP2 Biochemical Assay SHP2 Activity was Monitored by Measuring the Conversion of the Surrogate Substrate 6,8-Difluoromethylumbelliferyl Phosphate (DiEMUP) to the Fluorescent Product, 6,8-Difluoromethylumbelliferone (DiFMU).
SHP2 was pre-incubated with test compounds and the activating peptide pIRS1 (H2N-LN(pY) IDLDLV-(PEG) 8-LST(pY)ASINFQK-amide) for 30 min, prior to addition of the 6,8-difluoromethylumbelliferyl phosphate (DiEMUP), (Thermo Fisher D6567). Final assay concentrations were 10 pM SHP2, 0.25 μM pIRS1 peptide, 50 μM DiFMUP, 25 mM Bis-Tris propane, pH 7.0, 150 mM NaCl, 0.05% (v/v) Tween-20, 0.5 mM TCEP and 5% (v/v) DMSO. Rates of reaction were then measured over 30 min by monitoring fluorescence on a BMG Pherastar reader at excitation 360 nm/emission 450 nm. IC50 values were calculated in singlicate from the normalized dose-response plots using four parameter logistic curve fit. The Experiment for each compound was carried out in one time or multiple times, and the IC50 values were shown as a single value (for a compound measured in a single experiment) or an average value (for a compound measured in multiple experiments).

- IC50 [1]: 35 nM
- IC50 (SHP2): 4 nM
Compound: CCn1cc2c(Cl)c(-c3c[nH]c4nc(N5C[C@H]6CC[C@@H]5[C@@H]6N)n(C)c(=O)c34)ccc2n1 [Compound 3, 2-((1R,4R,7R)-7-amino-2-azabicyclo[2.2.1]heptan-2-yl)-5-(4-chloro-2-ethyl-2H-indazol-5-yl)-3-methyl-3,7-dihydro-4H-pyrrolo[2,3-d]pyrimidin-4-one]
